Where two headings read alike, the source gives them in different places.
Tests used:
[1] = molecular target: GDP-bound KRAS protein (aa 1-169), containing both G12C and C118A amino acid substitutions (Homo sapiens, UniProt P01116, C118A/G12C); assay: Coupled nucleotide exchange assay (SOS-mediated, AlphaScreen); format: biochemical; conditions: for Coupled exchange IC50 (5 min): 5 min compound pre-incubation; for Coupled exchange IC50 (2 h): 2 h compound pre-incubation
[2] = system: Phosphorylation of ERK1/2 in A549 cells; assay: Phospho-ERK1/2 MSD assay in A549 cells; format: cell-based; conditions: Homo sapiens
Summary of the method: (§1)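 IC50 comes from a 4-parameter logistic fit of MSD phospho-ERK1/2 signal in lysates. Before lysis, MIA PaCa-2 or A549 cells were exposed to titrated compound for 2 or 4 h at 37 °C, followed by a 10 min 10 ng/mL EGF stimulus.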

[3] = system: Phosphorylation of ERK1/2 in MIA PaCa-2 cells; assay: Phospho-ERK1/2 MSD assay in MIA PaCa-2 cells; format: cell-based; conditions: Homo sapiens
Summary of the method: as §1

[4] = A549, 2 h, read-out: p-ERK IC50 (2 h; A549), 2 h compound treatment
[5] = MIA PaCa-2, 2 h, read-out: p-ERK IC50 (2 h; MIA PaCa-2), 2 h compound treatment

Sequence of GDP-bound KRAS protein (aa 1-169), containing both G12C and C118A amino acid substitutions (P01116 1-169 isoform P01116-2 G12C/C118A): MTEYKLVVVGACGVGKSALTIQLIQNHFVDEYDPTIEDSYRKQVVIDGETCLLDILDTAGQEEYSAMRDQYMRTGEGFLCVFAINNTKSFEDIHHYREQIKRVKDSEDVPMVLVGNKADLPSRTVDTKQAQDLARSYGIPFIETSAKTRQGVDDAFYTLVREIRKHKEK

SMILES	Coupled exchange IC50 (5 min) [1]	Coupled exchange IC50 (2 h) [1]	IC50 [2, 4] [nM]	IC50 [3, 5] [nM]	IC50 ([2]; A549, 4 h, read-out: p-ERK IC50 (4 h; A549), 4 h compound treatment) [nM]	IC50 ([3]; MIA PaCa-2, 4 h, read-out: p-ERK IC50 (4 h; MIA PaCa-2), 4 h compound treatment) [nM]
C=CC(=O)N1CCN(c2nc(=O)n(-c3c(CC)cccc3CC)c3nc(-c4ccccc4C4CC4)c(Cl)cc23)[C@@H](C)C1 [Example 54-22, 6-chloro-7-(2-cyclopropyl-phenyl)-1-(2,6-diethyl-phenyl)-4-((2S)-2-methyl-4-(2-propenoyl)-1-piperazinyl) pyrido[2,3-d]pyrimidin-2(1H)-one]	0.347 µM	97 nM	≥ 33300	245		
C=CC(=O)N1CCN(c2nc(=O)n(-c3c(CC)cccc3CC)c3nc(-c4ccccc4F)c(Cl)cc23)[C@@H](C(=O)OC)C1 [Example 55-30, methyl (2R)-1-(6-chloro-1-(2,6-diethylphenyl)-7-(2-fluorophenyl)-2-oxo-1,2-dihydropyrido[2,3-d]pyrimidin-4-yl)-4-(2-propenoyl)-2-piperazinecarboxylate]	1.95 | nda μM		≥ 10000	1610		
C=CC(=O)N1CCN(c2nc(=O)n(-c3ccccc3C(C)C)c3nc(N4CCC4)c(Cl)cc23)[C@@H](C)C1 [Example 69-2, 7-(1-azetidinyl)-6-chloro-4-((2S)-2-methyl-4-(2-propenoyl)-1-piperazinyl)-1-(2-(2-propanyl)phenyl)pyrido[2,3-d]pyrimidin-2(1H)-one]		nda | 0.511 μM	≥ 33300	1310		
C=CC(=O)N1CCN(c2nc(=O)n(C(CC)CC)c3nc(Cl)c(Cl)cc23)[C@@H](C)C1 [Example 54-3, 6,7-dichloro-4-((2S)-2-methyl-4-(2-propenoyl)-1-piperazinyl)-1-(3-pentanyl) pyrido[2,3-d]pyrimidin-2(1H)-one]		nda | 0.781 μM			≥ 100000	8580

— patent US11090304B2 (Amgen Inc., priority 2018, dated 2021)
